From patent US20260027068A1, “METHODS OF ADM[…]-KETAMINE” (Perception Neuroscience, Inc., priority 2022, published 2026)

Assay: Respiratory rate (vital signs)
Conditions: 60 mg
Protocol: The Investigational Medicinal Product (IMP) R(−)-ketamine hydrochloride in sterile water for intravenous injection was investigated as an […] treatment of TRD. The International Union of Pure and Applied Chemistry (IUPAC) name is of the IMP is (2R)-2-(2-chlorophenyl)-2-(methylamino)cyclohexan-1-one. Subjects received the solution at either 30 mg or 60 mg dose, or a placebo. The IMP or placebo was administered on Day 1 as a single IV infusion via an electronic infusion pump over 40 minutes. The duration of study participation for each subject was up to 29 days including a screening period, a 3-day in-clinic visit, and 2 follow-up visits. 101 subjects were enrolled in approximately 20 study centers in the EU and the US.
Tympanic or temporal temperature, heart rate, blood pressure (SBP/DBP), respiratory rate, and SpO2 were assessed. Blood pressure and pulse measurements will be assessed with a completely automated device while the subject is supine or semi-supine. Manual techniques will be used only if an automated device is not available. Blood pressure and pulse measurements should be preceded by at least 5 minutes of rest for the subject in a quiet setting without distractions (e.g., television, cell phones). An abnormal blood pressure value at screening may be repeated once after 5 minutes of relaxation to determine the subject's eligibility. Blood pressure was recorded using the same arm and position (supine or semi-supine) throughout the study, where possible. Vital signs (to be taken before blood collection for laboratory tests) consisted of 1 pulse and 3 blood pressure measurements (3 consecutive blood pressure readings will be recorded at intervals of at least 1 minute). The average of the 3 blood pressure readings was recorded in the CRF. A pulse oximeter was used to measure peripheral capillary oxygen saturation (SpO2) continuously from pre-dose until 4-hours post-dose. A pulse oximeter was clipped onto the finger or foot of the subject, and light will be sent through the finger or foot and measured on the other side.
In these tables, baseline value is defined as the last non-missing value prior to study drug administration.

CN[C@@]1(c2ccccc2Cl)CCCCC1=O.Cl [R(−)-ketamine, (2R)-2-(2-chlorophenyl)-2-(methylamino)cyclohexan-1-one]
Respiratory Rate, Max (Day 1, 15 minutes): 18 breaths/minute
Respiratory Rate, Mean (Day 1, 15 minutes): 15.5 breaths/minute
Respiratory Rate, Median (Day 1, 15 minutes): 15.0 breaths/minute
Respiratory Rate, Min (Day 1, 15 minutes): 14 breaths/minute
Respiratory Rate, Max (Day 1, 40 minutes): 23 breaths/minute
Respiratory Rate, Mean (Day 1, 40 minutes): 15.9 breaths/minute
Respiratory Rate, Median (Day 1, 40 minutes): 16.0 breaths/minute
Respiratory Rate, Min (Day 1, 40 minutes): 12 breaths/minute
Respiratory Rate, Max (Day 1, 60 minutes): 16 breaths/minute
Respiratory Rate, Mean (Day 1, 60 minutes): 15.2 breaths/minute
Respiratory Rate, Median (Day 1, 60 minutes): 16.0 breaths/minute
Respiratory Rate, Min (Day 1, 60 minutes): 12 breaths/minute
Respiratory Rate, Max (Day 1, 2 hours): 19 breaths/minute
Respiratory Rate, Mean (Day 1, 2 hours): 15.5 breaths/minute
Respiratory Rate, Median (Day 1, 2 hours): 16.0 breaths/minute
Respiratory Rate, Min (Day 1, 2 hours): 11 breaths/minute
Respiratory Rate, Max (Day 1, 4 hours): 20 breaths/minute
Respiratory Rate, Mean (Day 1, 4 hours): 15.9 breaths/minute
Respiratory Rate, Median (Day 1, 4 hours): 16.0 breaths/minute
Respiratory Rate, Min (Day 1, 4 hours): 12 breaths/minute
Respiratory Rate, Max (Day 1, 6 hours): 20 breaths/minute
Respiratory Rate, Mean (Day 1, 6 hours): 15.7 breaths/minute
Respiratory Rate, Median (Day 1, 6 hours): 16.0 breaths/minute
Respiratory Rate, Min (Day 1, 6 hours): 12 breaths/minute
Respiratory Rate, Max (Day 2 - Discharge): 20 breaths/minute
Respiratory Rate, Mean (Day 2 - Discharge): 15.9 breaths/minute
Respiratory Rate, Median (Day 2 - Discharge): 16.0 breaths/minute
Respiratory Rate, Min (Day 2 - Discharge): 12 breaths/minute
Respiratory Rate, Max (Day 8): 18 breaths/minute
Respiratory Rate, Mean (Day 8): 15.7 breaths/minute
Respiratory Rate, Median (Day 8): 16.0 breaths/minute
Respiratory Rate, Min (Day 8): 12 breaths/minute
Respiratory Rate, Max (Day 15): 20 breaths/minute
Respiratory Rate, Mean (Day 15): 15.8 breaths/minute
Respiratory Rate, Median (Day 15): 16.0 breaths/minute
Respiratory Rate, Min (Day 15): 12 breaths/minute
Respiratory Rate, Change from Baseline, Max (to Day 1, 15 minutes): 2 breaths/minute
Respiratory Rate, Change from Baseline, Mean (to Day 1, 15 minutes): −0.6 breaths/minute
Respiratory Rate, Change from Baseline, Median (to Day 1, 15 minutes): −1.0 breaths/minute
Respiratory Rate, Change from Baseline, Min (to Day 1, 15 minutes): −4 breaths/minute
Respiratory Rate, Change from Baseline, Max (to Day 1, 40 minutes): 4 breaths/minute
Respiratory Rate, Change from Baseline, Mean (to Day 1, 40 minutes): −0.0 breaths/minute
Respiratory Rate, Change from Baseline, Median (to Day 1, 40 minutes): 0.0 breaths/minute
Respiratory Rate, Change from Baseline, Min (to Day 1, 40 minutes): −4 breaths/minute
Respiratory Rate, Change from Baseline, Max (to Day 1, 60 minutes): 1 breaths/minute
Respiratory Rate, Change from Baseline, Mean (to Day 1, 60 minutes): −0.8 breaths/minute
Respiratory Rate, Change from Baseline, Median (to Day 1, 60 minutes): −1.0 breaths/minute
Respiratory Rate, Change from Baseline, Min (to Day 1, 60 minutes): −4 breaths/minute
Respiratory Rate, Change from Baseline, Max (to Day 1, 2 hours): 2 breaths/minute
Respiratory Rate, Change from Baseline, Mean (to Day 1, 2 hours): −0.5 breaths/minute
Respiratory Rate, Change from Baseline, Median (to Day 1, 2 hours): 0.0 breaths/minute
Respiratory Rate, Change from Baseline, Min (to Day 1, 2 hours): −4 breaths/minute
Respiratory Rate, Change from Baseline, Max (to Day 1, 4 hours): 3 breaths/minute
Respiratory Rate, Change from Baseline, Mean (to Day 1, 4 hours): −0.1 breaths/minute
Respiratory Rate, Change from Baseline, Median (to Day 1, 4 hours): 0.0 breaths/minute
Respiratory Rate, Change from Baseline, Min (to Day 1, 4 hours): −4 breaths/minute
Respiratory Rate, Change from Baseline, Max (to Day 1, 6 hours): 6 breaths/minute
Respiratory Rate, Change from Baseline, Mean (to Day 1, 6 hours): −0.2 breaths/minute
Respiratory Rate, Change from Baseline, Median (to Day 1, 6 hours): 0.0 breaths/minute
Respiratory Rate, Change from Baseline, Min (to Day 1, 6 hours): −8 breaths/minute
Respiratory Rate, Change from Baseline, Max (to Day 2 - Discharge): 4 breaths/minute
Respiratory Rate, Change from Baseline, Mean (to Day 2 - Discharge): −0.0 breaths/minute
Respiratory Rate, Change from Baseline, Median (to Day 2 - Discharge): 0.0 breaths/minute
Respiratory Rate, Change from Baseline, Min (to Day 2 - Discharge): −4 breaths/minute
Respiratory Rate, Change from Baseline, Max (to Day 8): 4 breaths/minute
Respiratory Rate, Change from Baseline, Mean (to Day 8): −0.2 breaths/minute
Respiratory Rate, Change from Baseline, Median (to Day 8): 0.0 breaths/minute
Respiratory Rate, Change from Baseline, Min (to Day 8): −6 breaths/minute
Respiratory Rate, Change from Baseline, Max (to Day 15): 6 breaths/minute
Respiratory Rate, Change from Baseline, Mean (to Day 15): −0.1 breaths/minute
Respiratory Rate, Change from Baseline, Median (to Day 15): 0.0 breaths/minute
Respiratory Rate, Change from Baseline, Min (to Day 15): −3 breaths/minute
